How the values were obtained:
Tetranychus kanzawai = assay: Efficacy test against Tetranychus kanzawai (spray on mung beans); type: in vivo; settings: 125 ppm by mass, sprayed on mung beans; female adults; 25° C., humidity 65%; 10 days after spraying
Tetranychus urticae = assay: Efficacy test against Tetranychus urticae (spray on common beans); type: in vivo; settings: 125 ppm by mass, sprayed on common beans; female adults; 25° C., humidity 65%; 10 days after spraying

| Structure (SMILES) | acaricidal rate (Tetranychus kanzawai) | acaricidal rate (Tetranychus urticae) |
| --- | --- | --- |
| CSCC1CCN(C(=O)c2cc(C#N)c(-c3ccc(C(F)(F)F)cc3)nc2C)CC1 [a-90] | a-90% | a-90% |
| CCSCC1CCN(C(=O)c2cc(C#N)c(-c3ccc(C(F)(F)F)cc3)nc2CSC)CC1 [a-190] |  | a-190% |
| CCSCC1CCN(C(=O)c2cc(C(N)=S)c(-c3ccc(C(F)(F)F)cc3)nc2C(F)(F)C(F)(F)F)CC1 [b-90] |  | b-90% |
